{
  "source": "the SangsterLogP compilation",
  "data": [
    {"assay": "method code SF-AS, from DOI: 10.1021/es00166a009, PMID: 22195514", "settings": "not given", "values": [
      {"smiles": "Cc1ccc([N+](=O)[O-])c(O)c1", "logP": 2.31}
    ]},
    {"assay": "method code SF-AS, from DOI: 10.1021/es00166a009, PMID: 22195514", "settings": "pH 1.5", "values": [
      {"smiles": "O=[N+]([O-])c1ccccc1O", "logD": 1.89},
      {"smiles": "CCC(C)c1ccc(O)c([N+](=O)[O-])c1", "note": "(stereo unspecified)", "logD": 3.84},
      {"smiles": "O=[N+]([O-])c1cc(C(F)(F)F)ccc1O", "logD": 2.34},
      {"smiles": "Cc1ccc(O)c([N+](=O)[O-])c1", "logD": 2.37},
      {"smiles": "O=Cc1ccc(O)c([N+](=O)[O-])c1", "logD": 1.48},
      {"smiles": "Cc1cc(O)c([N+](=O)[O-])cc1Cl", "logD": 2.93},
      {"smiles": "O=[N+]([O-])c1cc(-c2ccccc2)ccc1O", "logD": 3.71},
      {"smiles": "COc1ccc(O)c([N+](=O)[O-])c1", "logD": 2.02},
      {"smiles": "O=[N+]([O-])c1ccc(F)cc1O", "logD": 1.91}
    ]},
    {"assay": "method code SF-AS,RC, from DOI: 10.1021/es00166a009, PMID: 22195514", "settings": "pH 1.5", "values": [
      {"smiles": "Cc1cccc(O)c1[N+](=O)[O-]", "logD": 2.29}
    ]}
  ]
}
